In patent EP0719267B1, “SECOND MESSENGER CELL SIGNALING INHIBITORS” (CELL THERAPEUTICS, INC., priority 1993, dated 1994):

Experiments:
[1] = tested on: IL-2 (alpha chain CD25) receptor; test: IL-2 receptor expression on anti-CD3 stimulated splenocytes (flow cytometry); format: cell-based, mouse; settings: anti-CD3 1 µg/ml, 24 hours, 1 µM
Description: This investigation illustrates IL-2 (alpha chain CD25) receptor expression on mouse splenoyctes. The IL-2 receptor is not expressed on resting T-cells, but is rapidly-induced by certain stimulants, e.g. antigen recognition or treatment with ConA or antibodies to CD3 (anti-CD3). IL-2-dependent proliferation requires IL-2 receptor expression. […] 49 (1 µM). Following overnight incubation, the splenocytes were stained with a fluoresceinated anti-IL-2 receptor antibody and fluorescence measured by flow cytometry. Figures 5A and 5B are frequency histograms of measurements for 20,000 cells per sample.
In another assay, inventive compound no. […] Murine splenocytes were activated for 24 hours with anti-CD3 (1 µg/ml), stained with a fluorescent antibody to CD25 and analyzed by flow cytometry.

HUVEC = test: VEGF-induced HUVEC migration, Matrigel invasion assay system; format: cell-based; settings: Homo sapiens, 50 ng/ml VEGF
Source text: 58. HUVEC were placed in a Matrigel invasion assay system (Becton Dickinson) and VEGF-induced migration assessed with or without varying concentrations of inventive compound no. 58.

SMILES	CD-25 receptor upregulation [1]	IC50 (HUVEC)
CCCCCCCCNCC(O)CCCCCCCCCn1c(=O)c2c(ncn2C)n(C)c1=O (centres unmarked) [compound no. 45]	did not inhibit CD-25 (p55) receptor upregulation by anti-CD3	–
COc1cc(CNCC(O)CCCCCCCCCn2c(=O)c3c(ncn3C)n(C)c2=O)cc(OC)c1OC (centres unmarked) [compound no. 58, 1-[11-(3,4,5-Trimethoxybenzylamino)-10-hydroxyundecyl]-3,7-dimethylxanthine]	–	100 to 200 nM
